Assay results taken from ChEMBL document CHEMBL1201862, “PubChem BioAssay data set” (2004).
Active and inactive are the calls of the source.

Key:
Bcl-2-like protein 10 = target: T1, Bcl-2-like protein 10 (Homo sapiens, UniProt Q9HD36); assay: displacers of TR3 peptide from Bcl-B, primary screen, selectivity assay for Bfl-1 inhibitor project, biochemical, fluorescence polarization, FITC-TR3 peptide (AID 748);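 further: fluorescence polarization from a fluorescein-labelled TR3 peptide binding purified Bcl-B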
T1 sequence (Q9HD36 whole entry): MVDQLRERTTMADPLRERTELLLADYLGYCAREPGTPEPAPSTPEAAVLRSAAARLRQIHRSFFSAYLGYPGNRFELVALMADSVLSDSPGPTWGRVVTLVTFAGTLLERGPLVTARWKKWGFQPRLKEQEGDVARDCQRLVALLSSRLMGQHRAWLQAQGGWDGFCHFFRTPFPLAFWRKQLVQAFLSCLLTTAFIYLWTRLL

Estrogen receptor beta [1] = target: T2, Estrogen receptor beta (Homo sapiens, UniProt Q92731);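 further: recombinant ER-beta bound to coactivator SRC1 peptide in presence of estradiol agonist; inhibitors block coactivator peptide binding and lower the FRET signal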
T2 sequence (Q92731 whole entry): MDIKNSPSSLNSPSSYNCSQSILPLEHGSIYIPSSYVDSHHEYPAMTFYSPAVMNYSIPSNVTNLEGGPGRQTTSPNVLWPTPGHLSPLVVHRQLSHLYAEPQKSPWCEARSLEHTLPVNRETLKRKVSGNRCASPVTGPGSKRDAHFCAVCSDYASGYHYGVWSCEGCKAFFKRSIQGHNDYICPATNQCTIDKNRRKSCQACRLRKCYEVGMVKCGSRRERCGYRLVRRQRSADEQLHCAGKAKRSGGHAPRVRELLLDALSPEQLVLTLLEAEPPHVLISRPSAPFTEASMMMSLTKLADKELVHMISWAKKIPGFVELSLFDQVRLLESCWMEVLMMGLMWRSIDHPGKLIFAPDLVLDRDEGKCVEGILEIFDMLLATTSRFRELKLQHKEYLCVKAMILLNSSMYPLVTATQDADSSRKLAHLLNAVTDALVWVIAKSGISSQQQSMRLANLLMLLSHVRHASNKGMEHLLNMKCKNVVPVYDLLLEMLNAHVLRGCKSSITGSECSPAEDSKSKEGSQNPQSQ

Estrogen receptor beta [2] = target: T2, Estrogen receptor beta; assay: ERβ–SRC-3 coactivator interaction inhibitors, confirmation, orthogonal assay, biochemical, ELISA, streptavidin-HRP readout (AID 1060)
[3] = target: Peroxisome proliferator-activated receptor gamma/Nuclear receptor coactivator 2 (Homo sapiens, UniProt P37231); assay type: functional;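 further: agonist potency for raising coactivator recruitment to the receptor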
Sequence of Peroxisome proliferator-activated receptor gamma/Nuclear receptor coactivator 2 (P37231 whole entry): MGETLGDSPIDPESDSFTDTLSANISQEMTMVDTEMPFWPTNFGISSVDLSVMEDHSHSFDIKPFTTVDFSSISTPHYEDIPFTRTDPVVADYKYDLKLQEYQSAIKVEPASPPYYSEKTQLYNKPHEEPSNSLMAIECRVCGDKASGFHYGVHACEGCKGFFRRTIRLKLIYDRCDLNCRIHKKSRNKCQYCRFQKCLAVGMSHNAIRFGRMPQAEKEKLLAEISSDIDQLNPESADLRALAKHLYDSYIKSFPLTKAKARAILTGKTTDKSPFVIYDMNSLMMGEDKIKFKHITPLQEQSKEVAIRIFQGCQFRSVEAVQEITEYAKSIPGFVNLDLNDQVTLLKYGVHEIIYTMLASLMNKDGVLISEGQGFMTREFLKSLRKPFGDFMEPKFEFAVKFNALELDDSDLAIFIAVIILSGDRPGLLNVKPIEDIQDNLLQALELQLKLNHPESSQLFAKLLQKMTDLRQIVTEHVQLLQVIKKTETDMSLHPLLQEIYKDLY
Sequence of Peroxisome proliferator-activated receptor gamma/Nuclear receptor coactivator 2 (Q15596 whole entry, further chain): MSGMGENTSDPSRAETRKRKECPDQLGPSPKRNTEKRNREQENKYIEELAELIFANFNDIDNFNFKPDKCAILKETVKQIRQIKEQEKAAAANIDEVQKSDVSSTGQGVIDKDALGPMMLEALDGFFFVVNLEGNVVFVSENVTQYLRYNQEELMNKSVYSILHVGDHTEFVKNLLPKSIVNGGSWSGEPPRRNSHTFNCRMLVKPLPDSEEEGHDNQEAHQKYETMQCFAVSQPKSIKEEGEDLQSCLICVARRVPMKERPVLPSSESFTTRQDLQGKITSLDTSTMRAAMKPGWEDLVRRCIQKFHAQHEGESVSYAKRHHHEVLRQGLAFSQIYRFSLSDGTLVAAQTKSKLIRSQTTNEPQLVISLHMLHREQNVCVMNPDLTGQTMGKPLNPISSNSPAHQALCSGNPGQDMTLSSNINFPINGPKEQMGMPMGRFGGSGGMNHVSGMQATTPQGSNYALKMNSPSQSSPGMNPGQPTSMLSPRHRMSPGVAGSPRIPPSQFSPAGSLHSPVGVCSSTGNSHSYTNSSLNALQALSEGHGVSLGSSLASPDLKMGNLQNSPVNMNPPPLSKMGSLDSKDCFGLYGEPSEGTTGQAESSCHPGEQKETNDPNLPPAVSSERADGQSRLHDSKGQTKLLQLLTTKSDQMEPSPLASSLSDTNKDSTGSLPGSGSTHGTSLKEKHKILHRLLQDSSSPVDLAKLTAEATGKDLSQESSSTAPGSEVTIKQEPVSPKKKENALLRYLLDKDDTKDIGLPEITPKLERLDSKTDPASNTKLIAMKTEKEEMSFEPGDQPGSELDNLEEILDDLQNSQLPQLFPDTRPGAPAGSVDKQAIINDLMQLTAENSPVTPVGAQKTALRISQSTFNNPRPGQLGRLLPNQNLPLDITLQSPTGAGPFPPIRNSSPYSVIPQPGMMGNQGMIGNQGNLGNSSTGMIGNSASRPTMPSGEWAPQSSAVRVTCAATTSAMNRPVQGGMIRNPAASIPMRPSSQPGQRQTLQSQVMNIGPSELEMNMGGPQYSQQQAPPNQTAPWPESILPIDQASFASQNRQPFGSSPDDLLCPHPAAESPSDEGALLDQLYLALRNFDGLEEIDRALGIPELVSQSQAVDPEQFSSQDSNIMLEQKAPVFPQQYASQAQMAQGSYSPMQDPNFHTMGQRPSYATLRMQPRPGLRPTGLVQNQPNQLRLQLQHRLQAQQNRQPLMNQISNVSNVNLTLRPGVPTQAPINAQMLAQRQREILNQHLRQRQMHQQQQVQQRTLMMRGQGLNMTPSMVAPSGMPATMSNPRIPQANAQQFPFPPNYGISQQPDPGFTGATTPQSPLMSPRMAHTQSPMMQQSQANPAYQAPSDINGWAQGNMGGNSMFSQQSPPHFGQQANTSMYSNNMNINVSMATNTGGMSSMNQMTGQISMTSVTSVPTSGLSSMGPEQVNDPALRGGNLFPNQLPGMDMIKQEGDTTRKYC

[4] = target: Peroxisome proliferator-activated receptor gamma/Nuclear receptor coactivator 1 (Homo sapiens, UniProt P37231); assay type: functional;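 further: agonist potency as compounds enhance coactivator SRC-1 recruitment to PPARgamma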
[5] = target: Peroxisome proliferator-activated receptor gamma/Nuclear receptor coactivator 3 (Homo sapiens, UniProt P37231); assay type: functional;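 further: agonist potency for raising coactivator recruitment to the receptor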
Sequence of Peroxisome proliferator-activated receptor gamma/Nuclear receptor coactivator 3 (P37231 whole entry): as the sequence (P37231 whole entry) above
Sequence of Peroxisome proliferator-activated receptor gamma/Nuclear receptor coactivator 3 (Q9Y6Q9 whole entry, further chain): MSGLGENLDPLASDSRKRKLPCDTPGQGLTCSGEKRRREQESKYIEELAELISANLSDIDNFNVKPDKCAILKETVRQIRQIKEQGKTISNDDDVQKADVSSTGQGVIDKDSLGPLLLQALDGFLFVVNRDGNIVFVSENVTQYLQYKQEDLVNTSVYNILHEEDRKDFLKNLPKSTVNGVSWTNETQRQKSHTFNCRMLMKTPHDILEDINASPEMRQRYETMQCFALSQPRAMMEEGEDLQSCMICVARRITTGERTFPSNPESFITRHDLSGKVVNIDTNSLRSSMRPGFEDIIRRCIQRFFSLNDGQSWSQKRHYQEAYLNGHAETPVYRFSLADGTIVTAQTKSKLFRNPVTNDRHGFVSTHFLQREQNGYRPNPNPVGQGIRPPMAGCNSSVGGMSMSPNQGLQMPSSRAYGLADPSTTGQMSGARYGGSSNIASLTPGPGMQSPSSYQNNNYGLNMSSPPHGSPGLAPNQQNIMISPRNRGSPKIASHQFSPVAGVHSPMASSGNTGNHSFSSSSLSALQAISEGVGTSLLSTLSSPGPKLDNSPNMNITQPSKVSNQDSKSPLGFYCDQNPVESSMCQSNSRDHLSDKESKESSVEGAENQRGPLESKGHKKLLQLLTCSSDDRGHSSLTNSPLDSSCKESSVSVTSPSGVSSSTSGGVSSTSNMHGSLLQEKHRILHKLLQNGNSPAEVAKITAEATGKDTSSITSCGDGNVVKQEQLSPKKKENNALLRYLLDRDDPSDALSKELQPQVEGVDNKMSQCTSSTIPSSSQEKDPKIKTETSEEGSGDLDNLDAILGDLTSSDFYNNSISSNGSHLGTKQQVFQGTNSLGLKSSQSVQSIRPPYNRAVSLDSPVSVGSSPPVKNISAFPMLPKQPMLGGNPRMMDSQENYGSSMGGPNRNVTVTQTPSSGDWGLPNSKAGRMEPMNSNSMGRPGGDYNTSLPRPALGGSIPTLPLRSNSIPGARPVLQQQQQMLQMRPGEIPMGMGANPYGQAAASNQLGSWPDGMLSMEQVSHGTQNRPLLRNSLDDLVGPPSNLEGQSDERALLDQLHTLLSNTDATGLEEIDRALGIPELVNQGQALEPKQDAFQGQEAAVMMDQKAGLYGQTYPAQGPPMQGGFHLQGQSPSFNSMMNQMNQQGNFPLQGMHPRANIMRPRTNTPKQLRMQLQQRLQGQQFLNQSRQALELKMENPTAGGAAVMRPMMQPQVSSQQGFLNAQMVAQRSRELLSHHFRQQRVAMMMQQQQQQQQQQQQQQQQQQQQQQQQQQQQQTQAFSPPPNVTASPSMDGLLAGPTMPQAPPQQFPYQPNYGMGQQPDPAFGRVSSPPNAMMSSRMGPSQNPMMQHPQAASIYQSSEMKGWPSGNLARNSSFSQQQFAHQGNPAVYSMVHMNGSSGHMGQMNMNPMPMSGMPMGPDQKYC

Estrogen receptor = target: T3, Estrogen receptor (Homo sapiens, UniProt P03372);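 further: potency for inhibiting coactivator peptide recruitment to the receptor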
T3 sequence (P03372 whole entry): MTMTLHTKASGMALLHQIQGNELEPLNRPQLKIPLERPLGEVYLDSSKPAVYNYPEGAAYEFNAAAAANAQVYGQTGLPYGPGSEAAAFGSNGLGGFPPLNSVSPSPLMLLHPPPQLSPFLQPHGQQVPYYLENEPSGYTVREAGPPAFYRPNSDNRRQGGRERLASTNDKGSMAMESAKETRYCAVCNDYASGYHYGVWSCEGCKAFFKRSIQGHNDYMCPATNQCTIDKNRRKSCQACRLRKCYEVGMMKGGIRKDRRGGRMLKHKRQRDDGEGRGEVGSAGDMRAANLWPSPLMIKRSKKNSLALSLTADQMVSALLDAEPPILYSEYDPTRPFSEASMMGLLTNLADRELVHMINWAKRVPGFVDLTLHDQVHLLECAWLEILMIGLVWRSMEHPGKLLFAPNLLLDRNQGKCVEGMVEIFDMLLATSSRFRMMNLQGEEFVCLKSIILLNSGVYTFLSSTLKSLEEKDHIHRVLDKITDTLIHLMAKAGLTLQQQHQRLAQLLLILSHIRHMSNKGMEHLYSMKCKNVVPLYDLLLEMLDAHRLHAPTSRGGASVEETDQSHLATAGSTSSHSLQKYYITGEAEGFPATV

[6] = target: Lysosomal acid glucosylceramidase (Homo sapiens, UniProt P04062); assay: Dose response cell-based high throughput screening assay to identify enhancers of beta-glucosidase activity. [Related pubchem assays: 784 ]; assay type: functional
Sequence of Lysosomal acid glucosylceramidase (P04062 whole entry): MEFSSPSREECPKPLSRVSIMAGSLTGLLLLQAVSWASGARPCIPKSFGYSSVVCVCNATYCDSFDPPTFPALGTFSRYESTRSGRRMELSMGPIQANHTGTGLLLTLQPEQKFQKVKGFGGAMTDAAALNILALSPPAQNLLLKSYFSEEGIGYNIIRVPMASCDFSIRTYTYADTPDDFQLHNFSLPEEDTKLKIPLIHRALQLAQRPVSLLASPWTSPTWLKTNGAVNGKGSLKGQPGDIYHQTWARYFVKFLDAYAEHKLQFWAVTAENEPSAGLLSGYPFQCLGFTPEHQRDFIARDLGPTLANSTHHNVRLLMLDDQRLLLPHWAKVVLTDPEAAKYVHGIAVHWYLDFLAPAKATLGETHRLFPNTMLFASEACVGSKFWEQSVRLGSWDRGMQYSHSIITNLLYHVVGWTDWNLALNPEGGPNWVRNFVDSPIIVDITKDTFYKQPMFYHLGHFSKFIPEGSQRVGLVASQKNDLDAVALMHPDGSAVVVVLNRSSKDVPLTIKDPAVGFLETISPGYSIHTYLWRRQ

[7] = test system: Streptococcus sp. 'group A'; assay: growth inhibition of control SK(-) GAS strain, dose response, counter-screen for streptokinase expression inhibitor project, luminescence, kanamycin, BacTiterGlo, confirmation (AID 1900); assay type: functional, organism-based
Streptokinase A = target: T4, Streptokinase A (Streptococcus pyogenes serotype M1, UniProt P10520); assay: S. pyogenes streptokinase expression inhibitors, potency, dose response, plasminogen activation absorbance, OD405 (AID 1914); assay type: functional, Streptococcus pyogenes M1 GAS;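 further: secreted streptokinase activity via plasminogen activation per viability signal from cell pellet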
T4 sequence (P10520 whole entry): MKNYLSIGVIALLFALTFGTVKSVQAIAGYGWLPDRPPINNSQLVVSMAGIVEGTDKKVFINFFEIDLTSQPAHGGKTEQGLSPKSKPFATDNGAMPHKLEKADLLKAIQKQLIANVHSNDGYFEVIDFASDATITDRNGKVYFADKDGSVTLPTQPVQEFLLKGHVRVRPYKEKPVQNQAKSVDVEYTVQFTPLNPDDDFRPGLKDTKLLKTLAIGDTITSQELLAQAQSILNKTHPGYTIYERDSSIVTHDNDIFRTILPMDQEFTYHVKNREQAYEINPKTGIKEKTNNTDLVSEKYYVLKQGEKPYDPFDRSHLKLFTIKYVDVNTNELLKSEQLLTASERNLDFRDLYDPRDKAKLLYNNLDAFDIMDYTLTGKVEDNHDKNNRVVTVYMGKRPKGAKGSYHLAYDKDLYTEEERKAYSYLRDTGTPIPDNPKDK

[8] = inhibitors of intracellular T. cruzi replication, confirmation, NIH3T3 host cells, beta-gal luminescence (AID 2044); assay type: functional, cell-based;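 further: intracellular parasites grown in NIH/3T3 mouse fibroblasts as host cells; luminescent beta-galactosidase reporter signal from transgenic T. cruzi replicating inside host cells; inhibitors lower the luminescence signal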
[9] = growth suppression of PTEN-null colon cells, dose response, cell-based, HCT116 PTEN knockout (AID 1047); assay type: functional;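 further: HCT116 colon tumor cells with PTEN knocked out; cells exposed to compound for 60 hours before readout; potency for loss of cell viability measured by luminescence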
[10] = cytotoxicity toward NIH3T3 fibroblasts, dose response, counter-screen, cell-based, ATP luminescence, mouse fibroblasts (AID 2010); assay type: functional;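 further: cells exposed to compound for about 90 hours before reading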
[11] = growth suppression of beta-catenin-knockout colon cells, dose response, cell-based, HCT116, human colon tumor (AID 1045); assay type: functional;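 further: HCT116 colon tumor cells with beta catenin knocked out; cells exposed to compound for 60 hours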
Streptococcus = assay: Group A Streptococcus viability loss, dose response, counter-screen for streptokinase expression inhibitor project, luminescence, BacTiterGlo (AID 1915); assay type: functional, organism-based;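 further: potency for reduction of bacterial viability or growth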
Vero = assay: cells; assay type: functional; settings: Chlorocebus sabaeus

Question: For `COc1ccc(C(N)CCc2ccc(C)o2)cc1` (stereo not given), which IC50 (Bcl-2-like protein 10) is on record?
Answer: > 50 µM (inactive)

Question: And the IC50 (Estrogen receptor beta [1])?
Answer: 6.8 µM (active)

Question: What about the IC50 (Estrogen receptor beta [2]) of the same compound?
Answer: 93.7 µM (not active)

Question: For `CC1CCN(S(=O)(=O)c2ccc(C(=O)Nc3sccc3C(N)=O)cc2)CC1`, which EC50 [3] is on record?
Answer: 145 µM (not active)

Question: And the EC50 [4]?
Answer: 71.2 µM (not active)

Question: And the EC50 [5]?
Answer: 79.2 µM (not active)

Question: Which IC50 (Estrogen receptor) does the source give for `CCC1(C)NC(=O)N(CC(=O)Nc2sc3c(c2C(N)=O)CCC3)C1=O` (stereo not given) here?
Answer: 18.2 µM (active)

Question: What about the IC50 (Estrogen receptor beta [2]) of the same compound?
Answer: 0.0325 µM (not active)

Question: Which results are given for `COc1ccccc1C(=O)Nc1ccccn1`?
Answer: EC50 [3]: > 79.4 µM (not active); EC50 [4]: > 79.4 µM (not active); EC50 [5]: > 79.4 µM (not active)

Question: Which results are given for `CC(C)Cn1c(N)c(C(=O)NCc2cccs2)c2nc3ccccc3nc21`?
Answer: EC50 [6]: 2.49 µM (active); EC50 [7]: 3.56 µM (active); EC50 (Streptokinase A): 30.2 µM (active); EC50 [8]: 2.17 µM (active); EC50 [9]: 36 µM (active); EC50 [10]: > 60 µM (not active); EC50 [11]: 47 µM (active); EC50 (Streptococcus): 7.88 µM (active); CC50 (Vero): 14 µM (active)
